Experimental findings from a melting point compilation (Tetko et al.; mined from patent text by program, amines drawn as free bases though some values may be those of a salt) are described below.

In turn, `CN1CCN2c3ccccc3Cn3c(c(CO)c4ccccc43)C2C1` (centres undefined) came in with a melting point of 184 to 189 °C.

As to `CN(C)CCCC(O)c1ccc(F)cc1-c1ccccc1` (centres undefined), the melting point lay in the range of 60 to 62 °C.

`O=C(O)c1cn(CCCO)c(=O)c2ccccc12` showed a melting point of 205 °C.

For the compound `COc1ccc(Br)cc1-c1ccc2nonc2c1`, the melting point lay within 135 to 137 °C.

`CN1C(=O)c2ccccc2NC(=O)C1c1ccccc1` (centres undefined): the melting point was 242 to 244 °C.

Turning to `FC(F)(F)c1ccccc1-c1nnc(Nc2cccc(SCc3ccccc3-c3ccccc3)c2)s1`, the melting point is 73 to 75 °C.

In turn, `CC(C)(C)C(Cl)=CC(=O)O` came in with a melting point of 146 to 148 °C.

Turning to `O=C(OC1CCCC1)c1ncn2c1[C@@H]1CCCN1C(=O)c1c(Cl)cccc1-2`, the melting point lay in the range of 210 to 212 °C.

`CCN(CC)c1nc2cc(C)nn2c2ccncc12` gave a melting point of 118 °C.

Consider `Nc1ncnc2c1c(-c1ccc(Oc3ccccc3)cc1)cn2C1CCCC1`, for which the melting point fell in the range of 178 to 179 °C.

The compound `CNC(=O)Oc1ccccc1C(=O)NC(Oc1ccccc1)C(Cl)(Cl)Cl` (centres undefined) had a melting point of 138 to 141 °C.

Consider `CCc1nc(O)c2sccc2n1`, for which the melting point fell in the range of 233 to 237 °C.

Compound `CCOC(=O)c1cnn(-c2c(F)c(F)c(C(F)(F)F)c(F)c2F)c1N` had a melting point of 166 to 168 °C.

In the case of `N#Cc1nn(-c2c(Cl)cc(C(F)(F)F)cc2Cl)c(N)c1S(=O)(=O)CC(F)(F)F`, the melting point was 157 °C.

Consider `O=C(NCc1cccc(-c2nc(=O)c3ccccc3s2)n1)c1ccccc1`, for which the melting point was 214 to 215 °C.

For the compound `Cc1ccc(S(=O)(=O)OCCC2COc3ccccc3C2)cc1` (centres undefined), the melting point was in the range of 91 to 93 °C.

For the compound `CN(C)C=C(C=O)c1cccc(C(F)(F)F)c1`, the melting point was 128 to 132 °C.

`CCOCC1=CC(=O)C=C2CCC3C4CCC(=O)C4(C)CCC3C21C` (centres undefined) had a melting point of 95 to 98 °C.

Compound `CCOC(=O)CCc1cn(-c2ccc(N)cn2)nc1C(C)C` showed a melting point of 75 to 76 °C.

With `CCCCCCCCCCNC(=O)c1cc(NCC(=O)OC)cc(C(=O)NCCCCCCCCCC)c1`, the melting point is 108 to 109 °C.

`CCCNCC(O)c1ccc(Br)cc1` (centres undefined) yielded a melting point of 72.5 to 74.5 °C.

In turn, `CC(C(=O)N(C)C)n1cc(Cl)c(-c2ccc(Cl)cc2)n1` (centres undefined) displayed a melting point of 92 to 93.5 °C.

With `N=C(N)Nc1nc(CSCCNC(=O)c2cccc(NS(=O)(=O)c3ccccc3)c2)cs1`, the melting point was 175 to 178 °C.

The compound `Cc1ccc(C=C2CCc3c2oc2ccc(C(=O)O)cc2c3=O)c(C)c1` came in with a melting point of 329 to 331 °C.

The compound `Cc1nc(Oc2ccc(Cl)cc2)c2ccccc2c1CC(=O)O` showed a melting point of 192 to 195 °C.

In the case of `CC(C)(C)OC(=O)[C@@H]1CCCN1C(=O)CCC(=O)c1ccc(Br)cc1`, the melting point lay in the range of 70 to 71 °C.

Compound `O=C(CN1CC(O)CC1=O)Oc1ccc(Cl)c(Cl)c1Cl` (centres undefined) gave a melting point of 84 to 86 °C.

Turning to `Cc1cc2n[nH]c(=O)n2nc1-c1ccc(C(N)=S)cc1`, the melting point was 325 to 329 °C.

With `Clc1ccc(-n2c(Cl)nc3ccccc32)c(Cl)c1`, the melting point fell in the range of 80 to 83 °C.

Turning to `Nc1cc(Oc2cc(Oc3cc(N)cc(C(F)(F)F)c3)cc(C(F)(F)F)c2)cc(C(F)(F)F)c1`, the melting point was in the range of 82 to 84 °C.

For the compound `N#Cc1cc(F)c(N2CCN(Cc3cnc4c(c3)NC(=O)[C@@H]3CCCN43)CC2)cc1F`, the melting point was in the range of 224 to 227 °C.

Compound `CCC(CO)NC(=O)C(C)(C)c1ccc(-c2cccc(COC)c2)cc1` (centres undefined) showed a melting point of 73 to 75 °C.

Regarding `CC1=C(c2cccc(C(F)(F)F)c2)n2ncc(C(N)=O)c2NC1`, the melting point is 200 to 202 °C.

With `CSc1ncc(Br)cn1`, the melting point lay within 63 to 65 °C.

In turn, `Cc1sc(S(N)(=O)=O)cc1NC(=O)c1cnn2c(C(F)F)cc(-c3ccc(C(F)(F)F)cc3)nc12` displayed a melting point of 313 °C.

For the compound `CCOc1c(Nc2cc(C3C(C(=O)OC)=C(C)NC(C)=C3C(=O)OC)ccc2F)c(=O)c1=O`, the melting point is 203 to 205 °C.

On to `Cc1n[nH]c(=O)n1-c1ccc([N+](=O)[O-])cc1`, for which the melting point amounted to 226 °C.

In turn, `CC(=O)N(O)C(C)c1cccc(Nc2ccccc2C(=O)NN)c1Cl` (centres undefined) showed a melting point of 193 to 195 °C.

For the compound `O=S(=O)(Nc1ccccc1COc1cccc2cccnc12)c1cccc(C(F)(F)F)c1`, the melting point lay within 120 to 121 °C.

The compound `C[C@H](N=Cc1ccc(OCc2cccc(F)c2)cc1)C(N)=O` came in with a melting point of 112 °C.

The compound `C[C@H](Cn1ccnc1)NC(=O)c1c[nH]c2ncc(-c3nn(C)c4cc(Cl)ccc34)nc12` came in with a melting point of 276 to 279 °C.

In turn, `CCOC(=O)Cn1c2ccc(Cl)ccc-2c(C(=O)OCC)c1=O` showed a melting point of 177 to 179 °C.

In the case of `O=c1[nH]nc(-c2ccc(Cl)cc2)o1`, the melting point fell in the range of 125 to 127 °C.

Turning to `CC(C)c1cc(Oc2ccc(Cl)c(Cl)c2)nc(C(C)C)c1N=CN(C)C`, the melting point was 102 to 103 °C.

In turn, `CN(C)c1ccc(-c2ccnc(Nc3ccc4c(c3)OCCO4)c2)cc1` came in with a melting point of 154 to 156 °C.

The compound `N#CC1=C(C2CCCC2)Nc2n[nH]cc2C1c1cccc2nonc12` (centres undefined) displayed a melting point of 193 °C.

`CCOC(=O)c1c(C)nc2c(ncn2C)c1Cl` showed a melting point of 56 to 58 °C.

Compound `CCCCc1oc2ccc(-c3nc(C)no3)cc2c1C(=O)c1ccc(O)cc1` displayed a melting point of 180 to 182 °C.

For the compound `CCCC(=O)c1cnc2c(CO)cccc2c1Nc1ccc(F)cc1C`, the melting point is 168 to 170 °C.

`CCOC(=O)C(Cc1ccc(OCCN2CCC(C)(C)c3cc(C(=NOC)c4ccccc4)ccc32)cc1)Oc1ccc(C(F)(F)F)cc1` (centres undefined) registered a melting point of 44 to 46 °C.

For the compound `Clc1ccc(COC(CCCn2ccnc2)c2ccc(Cl)cc2Cl)c(Cl)c1` (centres undefined), the melting point came out at 108 °C.

For the compound `Cc1ccc(S(=O)(=O)NC(=O)C(Cl)Cc2cc(-n3nc(C)n(C(F)F)c3=O)c(F)cc2Cl)cc1` (centres undefined), the melting point lay in the range of 267 to 269 °C.

Regarding `CC1(C)C(=O)N(c2ccc(N)c(C(F)(F)F)c2)C(=O)N1CCCCCN1C(=O)N(c2ccc(N)c(C(F)(F)F)c2)C(=O)C1(C)C`, the melting point fell in the range of 108 to 109 °C.

In turn, `CCCCNC(=S)c1cccc(NC(=O)N(C)C)c1` came in with a melting point of 68 to 71 °C.

Consider `O=C(Cn1ncc(-c2ccccc2)c1-c1ccccc1)NCCCN1CCCC1`, for which the melting point was 75 to 79 °C.

In turn, `CCC1=C(C#N)C(c2cccc(C#N)c2Cl)c2c[nH]nc2N1` (centres undefined) showed a melting point of more than 300 °C.

On to `CC(=O)c1cccn1[C@@H](Cc1ccc(OCCc2nc(-c3ccccc3)oc2C)cc1)C(=O)O`, for which the melting point lay within 110 to 112 °C.

In the case of `Cc1nnc(NCCN(C)C)nc1C`, the melting point was 46 to 49 °C.

The compound `CCC1c2ccccc2-c2sccc2N1S(=O)(=O)c1ccc(O)cc1` (centres undefined) had a melting point of 169 to 171 °C.

Take `CSCc1nc(C)c(C)c(O)n1`: the melting point came out at 166 °C.

In the case of `N#CC(CO)Cc1cc(O)c(O)c([N+](=O)[O-])c1` (centres undefined), the melting point was in the range of 149 to 152 °C.

On to `O=C(NC1CC1)OC1c2ccccc2C(=O)N1c1ccc2ccc(Cl)nc2n1` (centres undefined), for which the melting point was found to be 220 °C.

In turn, `COC(=O)c1ccc(N2CCCC2CO)cc1N` (centres undefined) displayed a melting point of 113 to 115 °C.

On to `Cc1ccccc1-c1nc2c3ccccc3ccn2c1N`, for which the melting point was in the range of 151 to 153 °C.

Consider `O=C(O)C1CSC(c2cc(Cl)ccc2OCCO[N+](=O)[O-])N1` (centres undefined), for which the melting point was in the range of 134 to 135 °C.

For the compound `Cc1cc(Cl)ccc1C(=O)CN(C(=O)C(C)Cl)c1ccccc1` (centres undefined), the melting point was 128 °C.

The compound `Cn1c(-c2ccc(-c3cccnc3)cc2)cnc1[C@H](Cc1ccccn1)N(C=O)c1cc2cc(Br)ccc2o1` registered a melting point of 168 to 171 °C.

Take `CC(=O)c1ccc(C2C(C(=O)c3ccc(C(C)C)cc3)=C(O)C(=O)N2c2ccc(C)nn2)cc1` (centres undefined): the melting point was 259 to 266 °C.

Compound `CCOC(=O)Cc1ccc(-c2nc(COc3ccc(COc4nn(-c5ccccc5)cc4/C=C/c4nc(N5CCCCC5)sc4C)cc3OC)c(C)o2)cc1` yielded a melting point of 131 to 132 °C.

Regarding `COC(=O)C(O)CCN1C(=O)c2ccccc2C1=O` (centres undefined), the melting point was in the range of 123 to 124 °C.

`COc1cc(C(=O)CN2CCN(c3ccncc3)CC2)ccc1OCC(=O)O` returned a melting point of 218 to 224 °C.

In turn, `N#Cc1cnn2c1N(C(=O)CCCl)CC=C2c1cccc(C(F)(F)F)c1` returned a melting point of 183 to 185 °C.

Compound `COC(=O)C(Cc1ccc([N+](=O)[O-])c(OCc2ccccc2)c1)(NC(=O)OC(C)(C)C)C(=O)OC` yielded a melting point of 114 to 116 °C.

`COc1ccnc(CCc2nc3cc(-c4ccc(S(=O)(=O)N5CCN(c6ccc(C)cc6)CC5)cc4)cnc3[nH]2)c1` yielded a melting point of 150 to 154 °C.

`Oc1cc2ccccc2nc1O` yielded a melting point of 261 to 262 °C.

`CC1=C(CN2CC(C(=O)O)C2)CCc2cc(OCc3ccc(C(F)(F)F)cc3C(F)(F)F)ccc21` showed a melting point of 155 to 165 °C.

In turn, `Fc1ccc(Cl)c2sc(CBr)cc12` had a melting point of 89 to 90 °C.

For the compound `COc1ccc(NC(=O)Nc2ccc(Cl)c(Cl)c2)cc1NC(=S)Nc1cc(C(F)(F)F)cc(C(F)(F)F)c1`, the melting point was found to be 181 °C.

`COc1cc2c(c(Br)c1OC(C)=O)Sc1cc(C)ccc1N2` yielded a melting point of 193 to 194 °C.

Take `N#Cc1ccc2nc3c(c(=O)n2c1)SCC3`: the melting point lay in the range of 261 to 263 °C.

As to `NC(=O)c1cc(N2CCN(Cc3ccc(F)cc3)C2=O)n[nH]1`, the melting point lay within 256 to 258 °C.

As to `Cc1ccc(C(=S)c2ccccc2C(=O)O)cc1`, the melting point was in the range of 151 to 155 °C.

With `C[C@@H](O)Cn1ncc2ccc(O)c([N+](=O)[O-])c21`, the melting point fell in the range of 70 to 74 °C.

Regarding `CCCN(c1nc(-c2ccc(Cl)cc2Cl)c(C)s1)C(c1ccccc1)C1CC1` (centres undefined), the melting point fell in the range of 78 to 81 °C.

For the compound `CCOc1ccc(C2=NN(CCCCCCBr)C(=O)[C@H]3CCCC[C@@H]23)cc1OCC` (relative stereo), the melting point is 47 to 51 °C.

In turn, `COc1ccc(CCCOc2c(C)cc(-c3noc(C(F)(F)F)n3)cc2C)cn1` came in with a melting point of 62 to 64 °C.

Turning to `O=C(Cn1nnnc1-c1ccccc1)OCCO`, the melting point fell in the range of 54 to 55 °C.

With `CCCCCCc1ncc(C(=O)O)s1`, the melting point came to 73 °C.

In turn, `O=[N+]([O-])c1cccc2c(O)ccnc12` gave a melting point of 204 to 206 °C.

As a reminder, the melting point is the temperature of the solid-liquid transition.
